# How the values were obtained:
# [1] = In-liquid AFM imaging of SLBs mimicking bacterial membranes; conditions: 0.25 μM
# Excerpt: Lipid Vesicle Preparation. 1-palmitoyl-2-oleoyl-glycero-3-phosphocholine (POPC) with 1-palmitoyl-2-oleoyl-sn-glycero-3-phospho-(1′-rac-glycerol) (POPG) lipids used for vesicle construction were from Avanti Polar Lipids (Alabaster, USA). POPC was used as mammalian model membranes, and POPC/POPG (3:1, molar ratios) was used as bacterial model membranes. The lipids were weighted up, dissolved in chloroform-methanol (2:1, vol/vol), and dried under a nitrogen stream to form a thin film. The film was hydrated in 10 mM phosphate buffer (pH 7.4), vortexed for 2 min and bath sonicated for 30 min. The obtained suspension was extruded using a hand-held extruder (Avanti Polar lipids) (29 times, polycarbonate filter, 0.05 μm) to give a clear solution of small unilamellar vesicles, which were analysed (50 nm) by photon correlation spectroscopy (ZEN3600; Malvern Instruments, UK) following the re-suspension of vesicles to a final concentration of 1 mg/mL. Dynamic light scattering batch measurements were carried out in a low volume disposable cuvette at 25° C. Hydrodynamic radii were obtained through the fitting of autocorrelation data using the manufacturer's Dispersion Technology Software (version 5.10).
# Preparation of SLBs for in-liquid AFM imaging. SLBs were formed using a vesicle fusion method as described elsewhere.^19 Freshly prepared vesicles (1.5 μL, 3 mg/mL) were added to cleaved mica that was pre-hydrated in 20 mM MOPS, 120 mM NaCl, 20 mM MgCl2 (pH 7.4).
# After incubation over 45 min, the samples were washed 10 times with imaging buffer (20 mM MOPS, with 120 mM NaCl, pH 7.4) to remove unfused vesicles. The resulting SLBs were checked to confirm they were defect free. Mica discs (Agar Scientific, Stansted, UK) were glued to a metal puck, and freshly cleaved prior to lipid deposition.
# In-liquid AFM imaging of SLBs. The topographic imaging of SLBs in aqueous buffers was performed on a Multimode 8 AFM system (Bruker AXS, USA) using Peak Force Tapping™ mode and MSNL-E cantilevers (Bruker AFM probes, USA). Images were taken at the PeakForce frequency of 2 kHz, PeakForce amplitude of 10-20 nm and PeakForce set-point of 10-30 mV (<100 pN). The images were then processed using Gwyddion (http://gwyddion.net) for line-by-line background subtraction (flattening) and plane fitting. NI01 or its derivatives were introduced into a 100-μL fluid cell (Bruker AXS, USA) to the final concentrations stated.
# EMRSA (12845) = assay type: cell-based, S. aureus
# Protocol: (§1) Minimum Inhibitory Concentrations assay. Minimum inhibitory concentrations (MICs) were determined by broth microdilution on P. aeruginosa, E. coli, S. aureus, M. luteus, B. subtilis, S. typhimurium and K. pneumoniae according to the Clinical and Laboratory Standards Institute. Typically, 100 μL of 0.5-1×10^6 CFU per ml of each bacterium in Mueller Hinton media broth (Oxoid) were incubated in 96-well microtiter plates with 100 μL of serial two-fold dilutions of the corresponding antimicrobial agent (from 100 to 0 μM) at 37° C. on a 3D orbital shaker. The absorbance was measured after the addition of NI01, its derivatives or an antibiotic at 600 nm using a SpectraMax i3× Multi-Mode Microplate Reader (Molecular Devices). MICs were defined as the lowest protein concentration that inhibited visible bacterial growth after 24 h at 37° C.
# EMRSA (12873) = assay type: cell-based, S. aureus
# Protocol: as §1
# EMRSA (12817) = assay type: cell-based, S. aureus
# Protocol: as §1
# Hemolysis assay = assay type: cell-based, human; conditions: human, human erythrocytes, 10% (vol/vol) suspension, pH 7.2
# Protocol: Hemolysis assay. Hemolysis was determined using human erythrocytes sourced commercially from Cambridge Bioscience Ltd. and used within two days. 10% (vol/vol) suspensions of human erythrocytes were incubated with NI01, its derivatives or antibiotics. The cells were rinsed four times in 10 mM phosphate buffer saline (PBS, GibcoTM), pH 7.2, by repeated centrifugation and re-suspension (3 min at 3000×g). The cells were then incubated at room temperature for 1 h in either deionized water (fully hemolysed control), PBS, or with a corresponding antimicrobial agent in PBS. After centrifugation at 10,000×g for 5 min, the supernatant was separated from the pellet, and the absorbance was measured at 550 nm using a SpectraMax i3× Multi-Mode Microplate Reader (Molecular Devices). Absorbance of the suspension treated with deionized water defined complete hemolysis. The values given in Table S2 correspond to concentrations needed to lyse half of the sample population (50% lysis of erythrocytes) and are expressed as median hemolytic doses—HD50.
# B. subtilis (ATCC 6633) = test: microbe, parasite or virus in culture; assay type: cell-based; conditions: ATCC 6633, 24 h
# Protocol: as §1
# M. luteus (ATCC 49732) = test: microbe, parasite or virus in culture; assay type: cell-based; conditions: ATCC 49732, 24 h
# Protocol: as §1
# E. coli (ATCC 15597) = test: microbe, parasite or virus in culture; assay type: cell-based; conditions: ATCC 15597, 24 h
# Protocol: as §1
# S. aureus (ATCC 6538) = test: microbe, parasite or virus in culture; assay type: cell-based; conditions: ATCC 6538, 24 h
# Protocol: as §1
# [2] = test system: K. pneumoniae (NCTC 5055); test: microbe, parasite or virus in culture; assay type: cell-based; conditions: NCTC 5055, 24 h
# Protocol: as §1
# [3] = test system: P. aeruginosa (ATCC 27853); test: microbe, parasite or virus in culture; assay type: cell-based; conditions: ATCC 27853, 24 h
# Protocol: as §1
substance,measurement,setting,value
H-MAAFMKLIQFLATKGQKYVSLAWKHKGTILKWIN-NH2 [α1α2α3],mode of membrane disruption (AFM),[1],two predicted modes of membrane disruption were evident
same,Minimum Inhibitory Concentration,EMRSA (12845),32 µg/mL
same,Minimum Inhibitory Concentration,EMRSA (12873),32 µg/mL
same,Minimum Inhibitory Concentration,EMRSA (12817),32 µg/mL
same,HC50 at 1 h,Hemolysis assay,200 µg/mL
same,Minimum Inhibitory Concentration,B. subtilis (ATCC 6633),6 µg/mL
same,Minimum Inhibitory Concentration,M. luteus (ATCC 49732),6 µg/mL
same,Minimum Inhibitory Concentration,E. coli (ATCC 15597),6 µg/mL
same,Minimum Inhibitory Concentration,S. aureus (ATCC 6538),6 µg/mL
same,Minimum Inhibitory Concentration,[2],20 µg/mL
same,Minimum Inhibitory Concentration,[3],12 µg/mL
